In patent publication US12377092B2, “Polycomb inhibitors and uses thereof” (FONDAZIONE ISTITUTO FIRC DI ONCOLOGIA MOLECOLARE (IFOM), priority 2017, dated 2025):
Like-named read-outs stand apart in the source and are kept apart here.

Tests used:
Assay type in all cases: cell-based, mouse
[1] = test system: EndMT markers (Klf4, Sca1 and Fsp1); experiment: Real time (RT-PCR) analysis of EndMT markers, wild type and CCM3 knock out immortalized lung endothelial cells; details: 72 hours
Method: (§1) Cells were seeded 6.3×10^4 cells/cm^2. The day after, PTC209 and UNC1999 were added to the confluent cells. Drugs were left for one or three days depending on the aim of the experiment. Final concentrations used for the two drugs were: 1 uM PTC209 and 5 uM UNC1999.
(§2) RNA extraction was performed both with (A) RNeasy kits (Promega) or (B) RNAeasy Mini Kit (QIAGEN). The latter allows also the extraction of proteins from the same sample. The RNA (500 ng) was reverse transcribed with random hexamers (High Capacity cDNA Archive kits; Applied Biosystems) in a final volume of 30 uL. Reaction were made with a thermocycler (Eppendorf) 10 min at 25° C. followed by 2 hours at 37° C. cDNA (5 ng) was amplified in triplicate in a reaction volume of 15 uL using TaqMan Gene Expression Assays (Applied Biosystems) in a ABI/Prism 7900 HT using a pre PCR step of 10 min at 95° C., followed by 40 cycles of 15 seconds at 95° C. and 60 seconds at 60° C. For each sample, the expression level was determined with the comparative threshold cycle (Ct) method, and normalized to the housekeeping genes encoding 18S, glyceraldehyde-3-phosphate dehydrogenase (GAPDH) and hypoxanthine-guanine phosphoribosyltransferase (hprt1). Ct or threshold cycle, represents the PCR cycle at which an increase in reporter fluorescence above a base-line signal can first be detect.
Wild type and CCM3 knock out cells were treated with either PTC209 or DMSO starting from the day after seeding, when cells were confluent. For this experiment cells were lysed for western blot and real-time analysis after 72 hours of treatment to check a long-term effect of PTC209.
To perform these experiments, immortalized lung endothelial cells both wild type and CCM3 knock out were treated, with the same experimental strategy used for PTC209, with UNC1999 for 72 hours and subsequently lysed for western blot and real time analysis. UNC1999 was used in its specific optimal concentration, which was different to PTC209. As control DMSO was given to the cells in a volume equal to the volume of DMSO in which UNC1999 was previously dissolved to rich the optimal concentration.
Briefly, wild type and CCM3 knock out cells were treated with either PTC209, UNC1999 or a combination of the two. PTC209 and UNC1999 were administrated at the same concentration used for the single treatment and DMSO was given as control in a volume equal to the sum of volumes of DMSO in which UNC1999 and PTC209 were previously dissolved.

[2] = test system: VE-cadherin; experiment: Real time analysis of VE-cadherin transcript, CCM3 knock out cells; details: PTC209
Method: as §2
Western blot and real time analysis of VE-cadherin were performed in parallel to confirm the reduction of VE-cadherin observed by immunofluorescence (FIG. 8A-C). VE-cadherin protein and transcript levels, as expected, were reduced in CCM3 knock out cells compare to wild type, as already shown (Bravi et al., 2015).

[3] = test system: CCM3 knock out cells
Method: as §1
For immunofluorescence, cells were fixed in three different ways: with 4% PAF in PBS (followed by permeabilization with 0.5% Triton X-100 for 5 minutes); with 1% PAF in triethanolamine pH 7.5, containing 0.1% Triton X-100 and 0.1% NP-40 for 10 minutes at RT or in methanol for 5 minutes at […]. Blocking (1 hour, RT) were performed in PBS containing 2% BSA and 5% donkey serum. Primary (overnight, 4° C.) and secondary (50 minutes, RT) antibodies were incubated in PBS with 2% BSA.
To check the effect of Bmi1 on junctional organisation, both wild type and CCM3 knock out cells were treated with PTC209 with the same experimental conditions described before and subsequently analysed by immunofluorescence. In particular cells were stained for VE-cadherin and PECAM1 (FIG. 7).
(§3) Experiment with combined PTC209 and UNC1999 treatments was repeated with the same experimental conditions described before and junction organisation was analysed through VE-cadherin staining and protein expression analysis (FIG. 19).

[4] = test system: EndMT markers (Klf4, Sca1 and Fsp1); details: 72 hours
Method: as §1
(§4) Confluent cells were lysed with boiling modified Laemi sample Buffer (2% SDS, 20% glycerol, and 125 mM Tris-HCl, pH 6.8). Lysates were incubated for 10 minutes at 100° C. to allow proteins denaturation. Protein concentration was estimated using the BCA Protein Assay Kit (Pierce). Equal amount of proteins was loaded on a gel, separated by SDS-PAGE and transferred to a Protran Nitrocellulose Membrane (Whatman) 0.2 um pores. The membranes were blocked for 1 hour at RT in Tris Buffered Saline (TBS: NaCl 150 mM, Tris-HCl 10 mM pH 7.4) plus 0.1% Tween-20 containing 5% BSA or milk. The membranes were incubated with primary antibodies diluted in TBST (TBS plus 0.1% Tween-20) containing 5% of either BSA or milk overnight at 4° C. Next, membranes were rinsed three times with TBST for 5 minutes each and incubated for 45 minutes at RT with HRP-linked secondary antibodies diluted in TBST containing 5% BSA/milk. Membranes were rinsed three times with TBST for 5 minutes each and specific bindings were detected by enhanced chemiluminescence (ECL) system (Amersham Bioscience) using ChemiDoc XRS gel imaging system (Bio-Rad).

[5] = test system: VE-cadherin; experiment: Western blot analysis of VE-cadherin, CCM3 knock out cells; details: 72 hours
Method: as §1
as §4, with “The membranes were incubated with primary antibodies diluted in TBST (TBS plus 0.1% Tween-20) containing 5% of either BSA or milk overnight at 4° C. Next, membranes were rinsed three times with TBST for 5 minutes each and incubated for 45 minutes at RT with HRP-linked secondary antibodies diluted in TBST containing 5% BSA/milk.” left out
as §3

[6] = test system: EndMT markers (Klf4, Sca1 and Fsp1); details: 72 hours; remark: listed apart in the source
Method: as §1, §2

[7] = test system: VE-cadherin and PECAM1; experiment: Real time analysis of VE-cadherin and Pecam1 transcripts, CCM1 knock out cells; details: PTC209
Method: as §2
Also for CCM1 model, the inventors tested the effect of Bmi1 inhibition on junction organisation. […]

[8] = test system: CCM1 knock out cells; experiment: Immunofluorescence of junction organisation (VE-cadherin, PECAM1), wild type and CCM1 knock out cells
Description: Also for CCM1 model, the inventors tested the effect of Bmi1 inhibition on junction organisation. The inventors repeated PTC209-treatment on CCM1 model with the same experimental conditions described before, and the inventors analysed VE-cadherin and PECAM1 expression by immunofluorescence analysis (FIG. 12) in parallel with real time analysis (FIG. 13).

[9] = wild type cells (physiological condition), CCM1 model

Compound: COc1cc(Br)c(Nc2nc(-c3c(C)nc4ncccn34)cs2)c(Br)c1 [PTC209, N-(2,6-dibromo-4-methoxyphenyl)-4-(2-methylimidazo[1,2-a]pyrimidin-3-yl)thiazol-2-amine]
- Klf4 transcript up-regulation induced by CCM3 deletion (real time analysis) ([1]; CCM3 knock out cells): completely rescued
- Klf4, Sca1 and Fsp1 transcripts (real time analysis) ([1]; CCM3 knock out cells, 1 uM PTC209, 5 uM UNC1999, vs DMSO): downregulated
- Klf4 transcript (real time analysis) ([1]; wild type cells (physiological condition), CCM3 model): not affected
- VE-cadherin transcript level (real time analysis) [2]: did not rescue
- junctional organisation (VE-cadherin, PECAM1 immunostaining) ([3]; CCM3 knock out cells): did not rescue junctional disorganisation
- junctional organisation (VE-cadherin, PECAM1 immunostaining) ([3]; wild type cells, CCM3 model): did not disturb junction organisation
- EndMT markers (Klf4, Sca1, Fsp1) protein levels (western blot) ([4]; CCM1 knock out cells, vs DMSO): strong inhibition
- Klf4 protein (western blot) [4, 9]: not downregulated
- VE-cadherin protein expression level (western blot) [5]: did not show any rescue
- Klf4 transcript (real time analysis) ([6]; CCM1 knock out cells): downregulated
- Sca1 and Fsp1 transcripts (real time analysis) ([6]; CCM1 knock out cells): downregulated
- EndMT markers (Klf4, Sca1, Fsp1) transcript levels (real time analysis) ([6]; CCM1 knock out cells, vs DMSO): strong inhibition
- Klf4 transcript (real time analysis) [6, 9]: not downregulated
- VE-cadherin and PECAM1 transcript levels (gene expression analysis) [7]: did not show any rescue
- junction organisation (VE-cadherin, PECAM1 immunostaining) ([8]; CCM1 knock out cells): visible reorganisation of junctions
- junction organisation (VE-cadherin, PECAM1 immunostaining) ([8]; wild type cells, CCM1 model): remained unchanged
